One assay concerns the target MalA (Malbranchea aurantiaca, UniProt L0E155). In words: LC/MS halogenation assay. In kind it is biochemical. As to conditions: full pathway reconstitution, NaCl.
Assay [1] concerns the target T1, PhqE (Penicillium fellutanum, UniProt L0E2Z4). Put plainly: X-ray crystal structure. In kind it is binding. Conditions: crystals grown with NAD+.
Assay [2] addresses T1, PhqE. Put plainly: X-ray crystal structure, […] Å. As to conditions: complex with (+)-premalbrancheamide. The class given is binding.
In the next assay the target is T2, MalE (Malbranchea aurantiaca, UniProt L0E2P7).
T2 sequence (L0E2P7 1-438): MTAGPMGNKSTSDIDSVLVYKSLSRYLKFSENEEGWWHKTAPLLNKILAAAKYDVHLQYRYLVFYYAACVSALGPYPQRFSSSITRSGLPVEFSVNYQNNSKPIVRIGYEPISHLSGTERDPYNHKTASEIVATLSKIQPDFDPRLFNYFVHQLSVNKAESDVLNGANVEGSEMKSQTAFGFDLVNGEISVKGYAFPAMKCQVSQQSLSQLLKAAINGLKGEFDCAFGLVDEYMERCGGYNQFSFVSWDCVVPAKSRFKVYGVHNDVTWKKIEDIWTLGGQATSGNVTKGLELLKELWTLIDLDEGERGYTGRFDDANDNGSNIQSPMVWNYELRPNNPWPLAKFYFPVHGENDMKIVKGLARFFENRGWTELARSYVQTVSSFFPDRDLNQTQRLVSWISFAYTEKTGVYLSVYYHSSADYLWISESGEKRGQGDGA
Put plainly: prenyltransferase assay, LC/MS. In kind it is biochemical. As to conditions: substrate-loaded MalG domains, NADPH.

The next assay deals with T3, MalB (Malbranchea aurantiaca, UniProt L0E2Y5).
T3 sequence (L0E2Y5 1-369): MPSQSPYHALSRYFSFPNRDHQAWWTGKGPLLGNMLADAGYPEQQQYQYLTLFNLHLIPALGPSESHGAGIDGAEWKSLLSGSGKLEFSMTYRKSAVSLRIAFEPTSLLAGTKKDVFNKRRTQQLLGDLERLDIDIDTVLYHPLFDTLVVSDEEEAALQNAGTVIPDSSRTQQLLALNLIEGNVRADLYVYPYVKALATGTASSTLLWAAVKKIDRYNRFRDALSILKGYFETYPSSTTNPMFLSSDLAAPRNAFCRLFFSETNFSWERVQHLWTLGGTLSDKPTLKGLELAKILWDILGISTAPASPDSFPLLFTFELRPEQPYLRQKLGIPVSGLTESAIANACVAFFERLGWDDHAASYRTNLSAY
In words: prenyltransferase assay, LC/MS. The class given is biochemical. Conditions: substrate-loaded MalG domains, NADPH.

The target in the next assay is MalG R (Malbranchea aurantiaca, UniProt L0E2Z1). Put plainly: LC/MS product formation. The class given is biochemical. Conditions: substrate analog 23 loaded on MalG T2.

Consider 5 compounds from PMC6815239 (Nature chemistry, 2019).

T1 sequence (L0E2Z4 whole entry): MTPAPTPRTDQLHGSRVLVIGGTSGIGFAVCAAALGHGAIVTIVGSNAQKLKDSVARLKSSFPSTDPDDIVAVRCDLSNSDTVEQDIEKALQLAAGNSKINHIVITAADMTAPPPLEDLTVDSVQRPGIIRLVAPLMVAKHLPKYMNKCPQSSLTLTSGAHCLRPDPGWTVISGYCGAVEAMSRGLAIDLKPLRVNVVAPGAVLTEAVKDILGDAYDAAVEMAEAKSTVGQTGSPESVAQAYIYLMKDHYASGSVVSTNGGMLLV
MalA, sequence (L0E155 whole entry): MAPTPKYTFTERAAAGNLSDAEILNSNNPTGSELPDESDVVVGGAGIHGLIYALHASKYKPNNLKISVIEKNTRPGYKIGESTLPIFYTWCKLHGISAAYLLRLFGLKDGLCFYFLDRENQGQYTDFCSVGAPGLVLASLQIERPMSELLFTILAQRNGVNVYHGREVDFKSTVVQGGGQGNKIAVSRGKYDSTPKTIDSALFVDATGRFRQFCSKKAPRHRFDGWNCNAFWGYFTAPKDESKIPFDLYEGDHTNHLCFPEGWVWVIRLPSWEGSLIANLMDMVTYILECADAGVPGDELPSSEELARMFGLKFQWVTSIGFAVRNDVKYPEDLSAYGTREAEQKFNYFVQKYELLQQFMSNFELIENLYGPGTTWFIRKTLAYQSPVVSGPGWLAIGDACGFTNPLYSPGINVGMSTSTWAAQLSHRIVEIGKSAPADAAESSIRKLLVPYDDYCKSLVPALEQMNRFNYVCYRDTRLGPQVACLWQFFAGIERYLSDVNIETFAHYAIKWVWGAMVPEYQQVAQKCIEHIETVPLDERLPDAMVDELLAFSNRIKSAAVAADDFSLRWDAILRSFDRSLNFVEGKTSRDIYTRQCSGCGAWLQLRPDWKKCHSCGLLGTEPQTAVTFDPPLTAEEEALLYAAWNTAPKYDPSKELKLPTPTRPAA
MalG R, sequence (L0E2Z1 1950-2345): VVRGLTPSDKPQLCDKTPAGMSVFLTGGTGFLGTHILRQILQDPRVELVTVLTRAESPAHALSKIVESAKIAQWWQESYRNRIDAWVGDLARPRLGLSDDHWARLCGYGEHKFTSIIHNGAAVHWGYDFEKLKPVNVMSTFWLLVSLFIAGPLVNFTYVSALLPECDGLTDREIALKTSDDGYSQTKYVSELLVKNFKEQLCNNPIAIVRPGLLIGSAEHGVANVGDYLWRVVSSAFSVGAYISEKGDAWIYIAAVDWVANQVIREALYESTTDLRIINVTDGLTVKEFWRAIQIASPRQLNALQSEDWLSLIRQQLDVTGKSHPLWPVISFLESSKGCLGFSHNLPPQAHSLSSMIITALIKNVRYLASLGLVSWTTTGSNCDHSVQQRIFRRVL

For `Cc1cc2c(cc1C)N(C[C@H](O)[C@H](O)[C@H](O)COP(=O)(O)OP(=O)(O)OC[C@H]1O[C@@H](n3cnc4c(N)ncnc43)[C@H](O)[C@@H]1O)c1[nH]c(=O)[nH]c(=O)c1N2` [FADH2], on MalA, the LC/MS halogenation assay result is “We incubated MalA with its pathway partners (L-Pro and L-Trp MalG, MalE and MalC, NADPH”.
Consider `NC(=O)c1ccc[n+]([C@@H]2O[C@H](COP(=O)(O)OP(=O)(O)OC[C@H]3O[C@@H](n4cnc5c(N)ncnc54)[C@H](O)[C@@H]3O)[C@@H](O)[C@H]2O)c1` [NAD^+], for which the X-ray crystal structure result at PhqE [1] is “while NAD^+ showed weak electron density”.
Regarding `NC(=O)c1ccc[n+]([C@@H]2O[C@H](COP(=O)(O)OP(=O)(O)OC[C@H]3O[C@@H](n4cnc5c(N)ncnc54)[C@H](OP(=O)(O)O)[C@@H]3O)[C@@H](O)[C@H]2O)c1` [NADP^+], the “X-ray crystal structure, 2.4 Å” value at PhqE [2] is reported as “PhqE crystals grown with NADP^+ showed strong electron density for the cofactor”.
Consider `CC(C)=CCOP(=O)(O)OP(=O)(O)O` [dimethylallyl pyrophosphate], for which the “prenyltransferase assay, LC/MS” value is “dimethylallyl pyrophosphate (DMAPP), the prenyl donor. MalE readily catalyzed a C2 reverse prenyl transfer” on MalE and “whereas MalB displayed modest activity” at MalB.
On to `NC(=O)C1=CN([C@@H]2O[C@H](COP(=O)(O)OP(=O)(O)OC[C@H]3O[C@@H](n4cnc5c(N)ncnc54)[C@H](OP(=O)(O)O)[C@@H]3O)[C@@H](O)[C@H]2O)C=CC1` [NADPH], for which the LC/MS product formation result on MalG R is given as “NADPH was the preferred cofactor in this reaction”.
